Results: patent US8188064B2, “Vitamin D analogs for obesity prevention and treatment” (Wisconsin Alumni Research Foundation, priority 2003, dated 2012)
“Also recorded” adds a separate entry of the source.

Key:
[1] = test system: 24-hydroxylase (24Ohase) gene promoter in ROS 17/2.8 (bone) cells; assay: In vitro transcription assay (luciferase reporter); assay type: cell-based; conditions: for transcriptional activity in bone cells, compared to 1α,25(OH)2D3: result in words
Procedure: Transcription activity was measured in ROS 17/2.8 (bone) cells that were stably transfected with a 24-hydroxylase (24Ohase) gene promoter upstream of a luciferase reporter gene (Arbour et al., 1998). Cells were given a range of doses. Sixteen hours after dosing the cells were harvested and luciferase activities were measured using a luminometer. RLU=relative luciferase units.

[2] = Hypercalcemia / serum calcium analysis; assay type: in vivo, rat
3T3-L1 cells = assay: Inhibition of 3T3-L1 differentiation into mature adipocytes (Oil-Red-O staining); assay type: cell-based, murine; conditions: for inhibition of differentiation of 3T3-L1 cells into mature adipocytes (Oil-Red-O staining): result in words, MDI-treated cells, staining at day 10
Procedure: Various 19-nor vitamin D analogs were or are tested and found to inhibit the differentiation of preadipocytes into mature adipocytes, to reduce body fat, to inhibit an increase in PPARγ, C/EBPα, and/or SCD-1 gene transcription and to be useful in treating and preventing obesity both in vivo and in vitro. The undifferentiated preadipocyte 3T3-L1 subline, a derivative of the original mouse fibroblast cell line, is one of the most accepted models for investigating the adipogenesis process and was used for the analysis. Two days after reaching confluence, 3T3-L1 cells can be induced to differentiate into adipocytes (see Mackall, J. C. et al. J. Biol. Chem., 251(20), 6462-6464 (1976)) with the addition of a cAMP phosphodiesterase inhibitor, dexamethasone (a glucocortoid), and insulin. […] The induction of PPARγ and C/EBPα is required for adipocyte differentiation. […] SCD-1 is an enzyme found in adipocytes that converts saturated fatty acids (C16 and C18) to their monounsaturated forms (C16:1 and C18:1). The deposition of triglyceride can also be detected as early as 3 days, and by the 7th to 14th days post-confluence, greater than 80% of the cells in the monolayer stain positively with Oil-red-O.

[3] = Bone calcium mobilization (serum calcium on low calcium diet); assay type: in vivo, rat; conditions: for bone calcium mobilization activity: result in words, vitamin D deficient rat model, compared to 1α,25(OH)2D3
Procedure: (§1) Male, weanling Sprague-Dawley rats were placed on Diet 11 (0.47% Ca) diet+AEK for one week followed by Diet 11 (0.02% Ca)+AEK for 3 weeks. The rats were then switched to a diet containing 0.47% Ca for one week followed by two weeks on a diet containing 0.02% Ca. Dose administration began during the last week on 0.02% calcium diet. Four consecutive ip doses were given approximately 24 hours apart. Twenty-four hours after the last dose, blood was collected from the severed neck and the concentration of serum calcium determined as a measure of bone calcium mobilization. The first 10 cm of the intestine was also collected for intestinal calcium transport analysis using the everted gut sac method.

[4] = Intestinal calcium transport (everted gut sac); assay type: in vivo; conditions: result in words, vitamin D deficient rat model, compared to 1α,25(OH)2D3
Procedure: as §1

[5] = test system: parathyroid hormone (PTH); assay: PTH suppression (serum PTH); assay type: in vivo, rat; conditions: result in words; normal/adult rats
Procedure: Adult, female Sprague-Dawley rats were obtained from Harlan (Madison, Wis.).
Upon receipt, the animals were identified by individual tail marks. Animals were housed in suspended, stainless steel, wire-bottom cages. Each cage contained one animal. The animal rooms were maintained at a temperature of 68 to 72° F. and a relative humidity of 25 to 75%. The holding rooms were set to provide 12 hours of light per day. Water and a purified rodent diet (Suda et al., Purified Rodent Diet-Diet 11) containing […] 0.3% phosphorus and fat soluble vitamins A, D, E and K were provided ad libitum.
Animals were randomly assigned to treatment groups (5 animals/group). All doses were administered intraperitoneally in 100 microliters of propylene glycol. Four to seven consecutive doses were given approximately 24 hours apart. Dosing was initiated after the animals had been allowed to acclimate for at least one week.
Both control and test articles were administered by intraperitoneal injection in 100 microliters for 4-7 consecutive days spaced approximately 24 hours apart. 1,25(OH)2D3 was given for 4 consecutive days, whereas, the test drugs were given for 7 consecutive days.
Twenty-four hours after the final dose, blood was collected from the tail artery and the concentration of bioactive serum PTH was measured using the rat BioActive Intact PTH ELISA Kit from Immutopics, Inc. (San Clemente, Calif.).

SCD-1 mRNA = assay: Inhibition of SCD-1 mRNA induction in 3T3-L1 cells (RT-PCR); assay type: cell-based, murine; conditions: for inhibition of SCD-1 mRNA induction: result in words, MDI-treated 3T3-L1 cells
Text: Chomczynski, P. et al., Anal. […] NO: 4)).

[6] = test system: Human promyelocytic leukemia (HL60) cells; assay: HL-60 differentiation (nitro blue tetrazolium reduction); assay type: cell-based
Procedure: The study drugs were dissolved in ethanol and the concentrations determined using UV spectrophotometry. Serial dilutions were prepared so that a range of drug concentrations could be tested without changing the final concentration of ethanol (≦0.2%) present in the cell cultures.
Human promyelocytic leukemia (HL60) cells were grown in RPMI-1640 medium containing 10% fetal bovine serum. The cells were incubated at 37° C. in the presence of 5% CO2.
HL60 cells were plated at 1.2×10^5 cells/ml. Eighteen hours after plating, cells in duplicate were treated with drug. Four days later, the cells were harvested and a nitro blue tetrazolium reduction assay was performed (Collins et al., 1979; J. Exp. Med. 149:969-974). The percentage of differentiated cells was determined by counting a total of 200 cells and recording the number that contained intracellular black-blue formazan deposits. Verification of differentiation to monocytic cells was determined by measuring phagocytic activity (data not shown).

[7] = target: T1, full-length recombinant rat vitamin D receptor (Rattus norvegicus, UniProt P13053); assay: Vitamin D receptor binding (competition with 3H-1,25(OH)2D3); conditions: for binding to the vitamin D receptor, compared to 1α,25(OH)2D3: result in words, competition for tritiated hormone binding
T1 construct: Full-length recombinant rat receptor was expressed in E. coli; histidine tag (C); made in house; host or cells: E. coli BL21(DE3) Codon Plus RIL
T1 sequence (P13053 1-423): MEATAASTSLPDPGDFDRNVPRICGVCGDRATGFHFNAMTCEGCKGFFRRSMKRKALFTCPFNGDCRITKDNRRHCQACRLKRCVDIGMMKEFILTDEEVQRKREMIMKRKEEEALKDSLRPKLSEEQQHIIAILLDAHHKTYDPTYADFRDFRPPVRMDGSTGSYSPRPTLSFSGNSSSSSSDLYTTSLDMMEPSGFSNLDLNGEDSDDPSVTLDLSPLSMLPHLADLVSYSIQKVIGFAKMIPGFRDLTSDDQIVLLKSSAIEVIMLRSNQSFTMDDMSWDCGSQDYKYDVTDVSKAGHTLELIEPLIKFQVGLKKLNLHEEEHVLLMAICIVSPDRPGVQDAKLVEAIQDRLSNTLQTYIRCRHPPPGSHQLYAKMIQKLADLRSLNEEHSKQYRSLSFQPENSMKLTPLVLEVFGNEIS
Procedure: Full-length recombinant rat receptor was expressed in E. coli BL21(DE3) Codon Plus RIL cells and purified to homogeneity using two different column chromatography systems. The first system was a nickel affinity resin that utilizes the C-terminal histidine tag on this protein. The protein that was eluted from this resin was further purified using ion exchange chromatography (S-Sepharose Fast Flow). Aliquots of the purified protein were quick frozen in liquid nitrogen and stored at −80° C. until use. For use in binding assays, the protein was diluted in TEDK50 (50 mM Tris, 1.5 mM EDTA, pH 7.4, 5 mM DTT, 150 mM KCl) with 0.1% Chaps detergent. The receptor protein and ligand concentration was optimized such that no more than 20% of the added radiolabeled ligand was bound to the receptor.
Unlabeled ligands were dissolved in ethanol and the concentrations determined using UV spectrophotometry (1,25(OH)2D3: molar extinction coefficient=18,200 and λmax=265 nm; Analogs: molar extinction coefficient=42,000 and λmax=252 nm). Radiolabeled ligand (^3H-1,25(OH)2D3, ˜159 Ci/mmole) was added in ethanol at a final concentration of 1 nM.
Radiolabeled and unlabeled ligands were added to 100 mcl of the diluted protein at a final ethanol concentration of ≦10%, mixed and incubated overnight on ice to reach binding equilibrium. The following day, 100 mcl of hydroxylapatite slurry (50%) was added to each tube and mixed at 10-minute intervals for 30 minutes. The hydroxylapaptite was collected by centrifugation and then washed three times with Tris-EDTA buffer (50 mM Tris, 1.5 mM EDTA, pH 7.4) containing 0.5% Titron X-100. After the final wash, the pellets were transferred to scintillation vials containing 4 ml of Biosafe II scintillation cocktail, mixed and placed in a scintillation counter. Total binding was determined from the tubes containing only radiolabeled ligand.

C/EBPα mRNA = C/EBPα mRNA induction by MDI in 3T3-L1 cells (RT-PCR); assay type: cell-based, murine; conditions: compound present at 1×10^−10 M
Procedure: Analysis of C/EBPα was determined by PCR using murine primers (upstream=CGA GTA GGG GGA GCA AAA A (SEQ ID NO: 7); downstream=GCA AAA AGC MG GGA TTA GGA G (SEQ ID NO: 8)). RT-PCR was carried out as described above with 0.5 μM each primer, 2 mM MgCl2, and 1×SYBR Green master mix. The murine C/EBPα primers have a 60° C. annealing temperature and a 12 second extension time.

PPARγ2 mRNA = PPARγ2 mRNA induction by MDI in 3T3-L1 cells (RT-PCR); assay type: cell-based, murine; conditions: compound present at 1×10^−10 M
Procedure: RT-PCR was carried out as described above with 0.5 μM each primer, 2 mM MgCl2, and 1×SYBR Green master mix.

Row | bone calcium mobilization activity [3] | intestinal calcium transport activity [4] | binding to the vitamin D receptor, compared to 1α,25(OH)2D3 [7] | SMILES | inhibition of differentiation of 3T3-L1 cells into mature adipocytes (Oil-Red-O staining) (3T3-L1 cells) | suppression of parathyroid hormone (PTH) [5] | differentiation of HL-60 cells, times less active than 1α,25(OH)2D3 [6] | transcriptional activity in bone cells, compared to 1α,25(OH)2D3 [1] | other results
1 | does not support | does not support | approximately equally effective | C=C1[C@H](O)CC(=C/C=C2\CCC[C@]3(C)[C@@H]([C@H](C)CC)CC[C@@H]23)C[C@H]1O [(20R)2MbisP] | nearly equipotent | considerable activity | about 5 times | – | transcription of reporter gene coupled to the CYP-24 promoter, times less active than 1α,25-(OH)2D3 ([1]; less active than 1α,25-(OH)2D3): about 5 times; hypercalcemia in adult rats ([2]; doses as high as 45 nmol/day): failed to cause hypercalcemia; inhibition of differentiation of MDI-treated 3T3-L1 cells (oil-red-O staining) (3T3-L1 cells; tested at 1×10^−8.5 M): active; bone calcium mobilization activity ([3]; listed as (20R)2-MbisP): very little bone calcium mobilization activity; intestinal calcium transport activity ([4]; listed as (20R)2-MbisP): less activity; inhibition of SCD1 mRNA induction (SCD-1 mRNA; tested at 1×10^−8.5 M): active
2 | active | active | as well as the native hormone | C=C1[C@H](O)CC(=C/C=C2\CCC[C@]3(C)[C@@H]([C@@H](C)CCCC(C)(C)O)CC[C@@H]23)C[C@H]1O [2-MD] | highest activity; also recorded: so much greater; also recorded: inhibit | – | – | – | C/EBPα mRNA induction by MDI (C/EBPα mRNA): prevented these mRNAs from being upregulated; also recorded: not induced; PPARγ mRNA induction by MDI (PPARγ2 mRNA): prevented these mRNAs from being upregulated; also recorded: not induced; EC50 (SCD-1 mRNA; Mus musculus, 3T3-L1, 96 h, SCD-1 mRNA at 4 days, read-out: EC50 for inhibition of murine 3T3-L1 expression of SCD-1 mRNA): ~2.9 pM; times more potent than the native hormone calcitriol (SCD-1 mRNA; inhibition of 3T3-L1 differentiation (FIG. 2 and FIG. 3)): at least 70 times
3 | no calcemic activity | no calcemic activity | – | C=C1[C@H](O)CC(=C/C=C2\CCC[C@]3(C)[C@@H](CCC)CC[C@@H]23)C[C@H]1O [19,21-dinor, 2-methylene-19,21-dinor-1α-hydroxybishomopregnacalciferol] | – | significant activity | about 15 times | active | vitamin D receptor binding, times less active than 1α,25-dihydroxyvitamin D3 ([7]; less active than 1α,25-dihydroxyvitamin D3): about 5 times

Row | SMILES | bone calcium mobilization activity [3] | intestinal calcium transport activity [4] | binding to the vitamin D receptor, compared to 1α,25(OH)2D3 [7] | inhibition of differentiation of 3T3-L1 cells into mature adipocytes (Oil-Red-O staining) (3T3-L1 cells) | suppression of parathyroid hormone (PTH) [5] | differentiation of HL-60 cells, times less active than 1α,25(OH)2D3 [6] | transcriptional activity in bone cells, compared to 1α,25(OH)2D3 [1] | other results
4 | C=C1[C@H](O)CC(=C/C=C2\CCC[C@]3(C)[C@@H]([C@@H](C)CCC)CC[C@@H]23)C[C@H]1O [2MtrisP] | very little bone calcium mobilization activity | some ability to elevate intestinal calcium transport; also recorded: less activity | almost equal to the native hormone; also recorded: as or nearly effective as calcitriol | increased slightly | remarkably effective | – | within one order of magnitude | serum calcium concentrations ([2]; adult rats, PTH suppression study): not raising serum calcium concentrations; inhibition of differentiation of 3T3-L1 cells into mature adipocytes (Oil-Red-O staining) (3T3-L1 cells; listed as (20S)2M-trisP): still possess activity; bone calcium mobilizing activity ([3]; very high dose of 2340 pmol/day): little bone calcium mobilizing activity; inhibition of SCD-1 mRNA induction (SCD-1 mRNA): increased slightly; inhibition of SCD-1 mRNA induction (SCD-1 mRNA; listed as (20S)2M-trisP): still possess activity; differentiation of HL-60 cells, compared to 1α,25(OH)2D3 ([6]; result in words): equal in activity
